Source: patent US10858352B2, “Pharmaceutical compounds” (Heptares Therapeutics Limited, priority 2018, dated 2020)
Where two headings read alike, the source gives them in different places.

Key:
Format in all cases: cell-based
[1] = target: T1, human muscarinic M1 receptor (Homo sapiens, UniProt P11229); experiment: Alphascreen Surefire phospho-ERK1/2 functional assay, M1; conditions: for Emax: CHO; for EC50 / pEC50 M1: agonist 5 min, 37° C.
T1 sequence (P11229 1-460): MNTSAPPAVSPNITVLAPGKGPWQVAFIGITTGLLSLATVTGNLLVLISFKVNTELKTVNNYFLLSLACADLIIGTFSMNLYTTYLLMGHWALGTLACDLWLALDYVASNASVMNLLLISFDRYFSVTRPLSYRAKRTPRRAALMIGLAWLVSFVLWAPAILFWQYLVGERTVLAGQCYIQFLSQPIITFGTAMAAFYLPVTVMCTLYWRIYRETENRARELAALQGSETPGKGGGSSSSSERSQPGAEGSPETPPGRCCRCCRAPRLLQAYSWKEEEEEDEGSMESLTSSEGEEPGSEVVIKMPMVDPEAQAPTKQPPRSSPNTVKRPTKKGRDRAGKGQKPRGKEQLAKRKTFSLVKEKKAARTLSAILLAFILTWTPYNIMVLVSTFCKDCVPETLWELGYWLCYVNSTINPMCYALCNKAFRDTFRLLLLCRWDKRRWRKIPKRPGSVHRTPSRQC
Protocol: (§1) ERK1/2 phosphorylation is a downstream consequence of both Gq/11 and Gi/o protein coupled receptor activation, making it highly suitable for the assessment of M1, M3 (Gq/11 coupled) and M2, M4 receptors (Gi/o coupled), rather than using different assay formats for different receptor subtypes. CHO cells stably expressing the human muscarinic M1, M2, M3 or M4 receptor were plated (25K/well) onto 96-well tissue culture plates in MEM-alpha+10% dialysed FBS. Once adhered, cells were serum-starved overnight. Agonist stimulation was performed by the addition of 5 μL agonist to the cells for 5 min (37° C.). Media was removed and 50 μL of lysis buffer added. After 15 min, a 4 μL sample was transferred to 384-well plate and 7 μL of detection mixture added. […]

[2] = target: T2, human muscarinic M2 receptor (Homo sapiens, UniProt P08172); experiment: Alphascreen Surefire phospho-ERK1/2 functional assay, M2; conditions: for Emax: CHO
T2 sequence (P08172 1-466): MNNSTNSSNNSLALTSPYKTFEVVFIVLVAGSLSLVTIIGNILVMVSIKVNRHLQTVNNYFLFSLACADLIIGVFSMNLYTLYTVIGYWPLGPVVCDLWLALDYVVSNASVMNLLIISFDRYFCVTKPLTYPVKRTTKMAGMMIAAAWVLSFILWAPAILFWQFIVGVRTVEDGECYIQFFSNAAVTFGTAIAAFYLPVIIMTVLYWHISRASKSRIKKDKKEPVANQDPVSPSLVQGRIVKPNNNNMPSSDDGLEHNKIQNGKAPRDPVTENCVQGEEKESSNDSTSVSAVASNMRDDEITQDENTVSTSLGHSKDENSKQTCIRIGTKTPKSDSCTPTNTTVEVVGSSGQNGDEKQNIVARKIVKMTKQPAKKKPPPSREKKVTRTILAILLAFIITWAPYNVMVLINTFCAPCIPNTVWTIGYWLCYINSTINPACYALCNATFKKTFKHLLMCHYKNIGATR
Protocol: as §1

[3] = target: T3, human muscarinic M3 receptor (Homo sapiens, UniProt P20309); experiment: Alphascreen Surefire phospho-ERK1/2 functional assay, M3; conditions: for Emax: CHO
T3 construct: expressed in transfected cells
Protocol: as §1

[4] = target: T4, human muscarinic M4 receptor (Homo sapiens, UniProt P08173); experiment: Alphascreen Surefire phospho-ERK1/2 functional assay, M4; conditions: for EC50 / pEC50 M4: agonist 5 min, 37° C.; for Emax: CHO, read-out: % Emax cf. ACh (M4), CHO cells stably expressing human M4; for Emax / % Emax cf. ACh (M4): Emax relative to ACh
T4 construct: expressed in transfected cells
T4 sequence (P08173 1-479): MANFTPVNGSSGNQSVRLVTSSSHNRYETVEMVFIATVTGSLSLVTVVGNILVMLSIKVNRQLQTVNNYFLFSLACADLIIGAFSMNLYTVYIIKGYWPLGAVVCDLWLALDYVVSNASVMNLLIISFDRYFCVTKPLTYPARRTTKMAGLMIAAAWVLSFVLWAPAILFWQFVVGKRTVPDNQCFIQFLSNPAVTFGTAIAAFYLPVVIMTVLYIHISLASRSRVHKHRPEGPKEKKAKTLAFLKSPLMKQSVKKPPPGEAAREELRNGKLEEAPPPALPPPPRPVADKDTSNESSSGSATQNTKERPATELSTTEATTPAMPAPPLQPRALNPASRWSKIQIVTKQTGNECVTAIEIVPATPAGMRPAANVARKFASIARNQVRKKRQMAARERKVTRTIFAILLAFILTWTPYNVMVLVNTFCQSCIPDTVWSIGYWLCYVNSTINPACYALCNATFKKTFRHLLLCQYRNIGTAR
Protocol: as §1

[5] = read-out: % Emax cf. ACh (M1), CHO cells stably expressing human M1, Emax relative to ACh
[6] = pEC50 M1, CHO cells stably expressing human M1
[7] = CHO cells stably expressing human M4, read-out: pEC50 M4 (converted)
[8] = CHO cells stably expressing human M1, read-out: pEC50 M1 (converted)
[9] = CHO cells stably expressing human M2, agonist 5 min, 37° C., read-out: pEC50 M2 (converted)
[10] = CHO cells stably expressing human M3, agonist 5 min, 37° C., read-out: pEC50 M3 (converted)
[11] = CHO cells stably expressing human M1, Emax relative to ACh
[12] = read-out: % Emax cf. ACh (M2), CHO cells stably expressing human M2, Emax relative to ACh
[13] = read-out: % Emax cf. ACh (M3), CHO cells stably expressing human M3, Emax relative to ACh
[14] = CHO cells stably expressing human M1
[15] = CHO cells stably expressing human M2, Emax relative to ACh
[16] = CHO cells stably expressing human M2, agonist 5 min, 37° C.
[17] = CHO cells stably expressing human M3, Emax relative to ACh
[18] = CHO cells stably expressing human M3, agonist 5 min, 37° C.
[19] = CHO cells stably expressing human M4

T3 sequence (P20309 whole entry): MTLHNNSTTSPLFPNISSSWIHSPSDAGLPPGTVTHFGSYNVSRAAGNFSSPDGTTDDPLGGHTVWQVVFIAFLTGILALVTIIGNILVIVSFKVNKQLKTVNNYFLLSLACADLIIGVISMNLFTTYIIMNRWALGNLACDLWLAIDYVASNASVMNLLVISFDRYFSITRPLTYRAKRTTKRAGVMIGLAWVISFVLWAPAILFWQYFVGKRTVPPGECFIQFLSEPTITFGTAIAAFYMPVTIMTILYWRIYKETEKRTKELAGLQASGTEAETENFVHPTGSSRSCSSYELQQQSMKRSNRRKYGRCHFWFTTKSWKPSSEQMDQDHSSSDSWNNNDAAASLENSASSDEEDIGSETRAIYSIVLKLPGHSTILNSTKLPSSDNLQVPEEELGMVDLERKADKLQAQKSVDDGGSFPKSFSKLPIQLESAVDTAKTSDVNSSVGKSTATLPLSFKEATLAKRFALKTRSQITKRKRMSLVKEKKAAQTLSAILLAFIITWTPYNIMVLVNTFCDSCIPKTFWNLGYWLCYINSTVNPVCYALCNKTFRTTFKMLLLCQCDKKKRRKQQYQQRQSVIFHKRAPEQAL

Compound | Emax [1, 5] [%] | EC50 [4, 7] [nM] | Emax [4] [%] | EC50 [1, 8] [nM] | EC50 [2, 9] [nM] | EC50 [3, 10] [nM] | % Emax cf. ACh (M1) [1, 11] | Emax [2, 12] [%] | Emax [3, 13] [%] | other results
Cc1noc(N2CCCC(N3CCC4(CC3)C(=O)Nc3ccccc34)CC2)n1 (single isomer, unassigned) [10-6 Isomer 1] | 76 | 77.6 | 77 | – | – | – | – | – | – | EC50 [1, 6]: 661 nM; EC50 [2]: > 20000 nM; Emax ([2]; read-out: % Emax cf. ACh (M2)): 60%; EC50 [3]: > 20000 nM; Emax ([3]; read-out: % Emax cf. ACh (M3)): 4%
Cc1noc(N2C3CCC2CC(N2CCC(C(=O)NC4(C)CCC4)CC2)C3)n1 (single isomer, unassigned) [6-5 Isomer 2] | 100 | 195 | 79 | 148 | > 20000 | > 20000 | – | – | – | Emax ([2]; read-out: % Emax cf. ACh (M2)): 31%; Emax ([3]; read-out: % Emax cf. ACh (M3)): 11%
Cc1noc(N2CCC3(CC(N4CCC(C#N)(c5ccccc5)CC4)C3)C2)n1 (single isomer, unassigned) [2-2 Isomer 2] | – | – | 51 | – | – | – | – | – | – | Emax ([1]; read-out: % Emax cf. ACh (M1)): 40%; EC50 [1, 6]: 741 nM; EC50 [2]: > 20000 nM; Emax ([2]; read-out: % Emax cf. ACh (M2)): 2%; EC50 [3]: > 20000 nM; Emax ([3]; read-out: % Emax cf. ACh (M3)): 3%; EC50 ([4]; pEC50 M4, CHO cells stably expressing human M4): 117 nM
Cc1noc(N2CCCC(N3CCC(N4C[C@H](F)C[C@@H]4CO)CC3)CC2)n1 (single isomer, unassigned) [10-7 Isomer 1] | – | 105 | 89 | 3720 | > 20000 | > 20000 | (44) % | 15 | 2 | –
Cc1noc(N2C3COCC2CC(N2C[C@@H]4[C@H](C2)[C@H]4C(=O)N(C)C(C)C)C3)n1 (single isomer, unassigned; isomer 2) [12-22 Isomer 2] | – | – | – | – | – | – | (102) % | – | – | pEC50 M1 [1, 14]: 8.06; % Emax cf. ACh (M2) [2, 15]: (81) %; pEC50 M2 [2, 16]: 5.68; % Emax cf. ACh (M3) [3, 17]: (52) %; pEC50 M3 [3, 18]: 4.90; % Emax cf. ACh (M4) [4, 19]: (108) %; pEC50 M4 [4, 19]: 6.23
Cc1noc(N2C3COCC2CC(N2CCC(n4cccn4)CC2)C3)n1 (single isomer, unassigned) [9-1 Isomer 1] | 15 | 105 | 77 | > 20000 | > 20000 | > 20000 | – | – | – | Emax ([2]; read-out: % Emax cf. ACh (M2)): 21%; Emax ([3]; read-out: % Emax cf. ACh (M3)): 1%
Cc1noc(N2CC3CCC2CC3N2CCC(n3cccn3)CC2)n1 (single isomer, unassigned) [7-1 Isomer 1] | 18 | 151 | 85 | > 20000 | > 20000 | > 20000 | – | 11 | 7 | –
Cc1noc(N2C3CCC2CC(N2CCC(n4cccn4)CC2)C3)n1 (single isomer, unassigned) [6-1 Isomer 1] | 23 | 295 | 51 | > 20000 | > 20000 | > 20000 | – | – | – | Emax ([2]; read-out: % Emax cf. ACh (M2)): 2%; Emax ([3]; read-out: % Emax cf. ACh (M3)): 2%
CC(=O)N(CC1(C)CCC1)C1CCN(C2CC3CCC(C2)N3c2nc(C)no2)CC1 (single isomer, unassigned; isomer 2) [12-18 Isomer 2] | – | – | – | – | – | – | (92) % | – | – | pEC50 M1 [1, 14]: 8.63; % Emax cf. ACh (M2) [2, 15]: (90) %; pEC50 M2 [2, 16]: 6.59; % Emax cf. ACh (M3) [3, 17]: (48) %; pEC50 M3 [3, 18]: 5.72; % Emax cf. ACh (M4) [4, 19]: (92) %; pEC50 M4 [4, 19]: 7.83
Cc1noc(N2CCC3(CC(N4CCC(n5cccn5)CC4)C3)C2)n1 (single isomer, unassigned) [2-1 Isomer 2] | 56 | 302 | 41 | > 20000 | > 20000 | > 20000 | – | 2 | 3 | –
CC(=O)N(CC1(C)CCC1)C1CCN(C2CC3CCC(C2)N3c2nc(C)no2)CC1 (single isomer, unassigned; isomer 1) [12-18 Isomer 1] | – | – | – | – | – | – | (87) % | – | – | pEC50 M1 [1, 14]: 7.00; % Emax cf. ACh (M2) [2, 15]: (27) %; pEC50 M2 [2, 16]: 5.23; % Emax cf. ACh (M3) [3, 17]: (15) %; pEC50 M3 [3, 18]: <4.70; % Emax cf. ACh (M4) [4, 19]: (62) %; pEC50 M4 [4, 19]: 6.68
Cc1noc(N2CC3CCC2CC3N2CCC3(CC2)CNC(=O)O3)n1 (single isomer, unassigned) [12-2 Isomer 2] | 80 | > 20000 | 18 | 398 | > 20000 | > 20000 | – | 14 | 1 | –
Cc1noc(N2CC3CC(N4CCC5(CC4)CNC(=O)C5)CC2C3)n1 (single isomer, unassigned) [11-2 Isomer 2] | 67 | > 20000 | 15 | 9.55 | > 20000 | > 20000 | – | 8 | 5 | –
Cc1noc(N2CCCC(N3CCC4(CC3)CNC(=O)C4)CC2)n1 (single isomer, unassigned) [10-2 Isomer 1] | 66 | > 20000 | 10 | 93.3 | > 20000 | > 20000 | – | 3 | 5 | –
Cc1noc(N2CC3CC(N4CCC5(CC4)CNC(=O)O5)CC2C3)n1 (single isomer, unassigned) [11-3 Isomer 2] | 65 | > 20000 | 11 | 70.8 | > 20000 | > 20000 | – | 21 | 22 | –
Cc1noc(N2CC3CCC2CC3N2CCC3(CC2)CNC(=O)C3)n1 (single isomer, unassigned) [12-1 Isomer 2] | – | 117 | – | 32.4 | > 20000 | > 20000 | (106) % | 6 | 2 | % Emax cf. ACh (M4) [4, 19]: (30) %
Cc1noc(N2CC3CCC2CC3N2CCC(n3cccn3)CC2)n1 (single isomer, unassigned) [7-1 Isomer 2] | – | 85.1 | – | 2290 | – | – | (33) % | – | – | % Emax cf. ACh (M2) [2, 15]: (15) %; pEC50 M2 [2, 16]: <4.70; % Emax cf. ACh (M3) [3, 17]: (6) %; pEC50 M3 [3, 18]: <4.70; % Emax cf. ACh (M4) [4, 19]: (99) %
